Measurements: patent US10888547B2, “Amorphous and a crystalline form of genz 112638 hemitartrate as inhibitor of glucosylceramide synthase” (Genzyme Corporation, priority 2009, dated 2021)
pIC50: −log10 of the molar value.

Legend:
Fabry-Rag mice = assay: Combination ERT/SRT therapy of Fabry-Rag mice; assay type: in vivo, mouse; details: ERT 1 mg/kg α-galactosidase A i.v., SRT 300 mg/kg daily in diet
Description: For the combination therapy studies, Fabry-Rag mice were put on study at 3 months old (treatment model). Mice in group A received intravenous injections of recombinant human alpha-galactosidase A (Genzyme Corp.) at a dose of 1 mg/kg every 2 months (i.e. 3, 5, 7 and 9 months old). Group B received the same intravenous enzyme doses plus it received Formula (I) Hemitartrate (Genzyme Corp., Cambridge, Mass.) as a component of the pellet food diet. The drug was formulated at 0.15% (w/w) in standard 5053 mouse chow (TestDiet, Richmond, Ind.) and provided ad libitum. […] Group C received enzyme injections every 4 months (i.e. 3 and 7 months old) and was on the same drug-in-food diet as group B. Group D received only the drug-in-food diet (same as groups B and C). Group E was untreated Fabry-Rag mice and group F were wild-type controls.
Quantitation of GL-3 was by Tandem Mass Spectrometry essentially as for GL-1.
Hot plate Assay was performed as described previously (Ziegler, R J et al. Molec. Ther. 15(3), 492-500 (2007).
Beginning at three-months of age, the mice were subjected to a schedule of behavioral tests (i.e. hot-plate assay) and biochemical tests (i.e., GL-3 level analysis in tissues/blood/urine), as shown in FIG. 10.

[1] = biological target: T1, Lysosomal glucocerebrosidase (GBA1) (Homo sapiens, UniProt P04062); assay: Lysosomal glucocerebrosidase in intact human cells / FACS in K562 cells; assay type: cell-based
T1 construct: endogenous in cells; K562 cells for the FACS assay
T1 sequence (P04062 40-536): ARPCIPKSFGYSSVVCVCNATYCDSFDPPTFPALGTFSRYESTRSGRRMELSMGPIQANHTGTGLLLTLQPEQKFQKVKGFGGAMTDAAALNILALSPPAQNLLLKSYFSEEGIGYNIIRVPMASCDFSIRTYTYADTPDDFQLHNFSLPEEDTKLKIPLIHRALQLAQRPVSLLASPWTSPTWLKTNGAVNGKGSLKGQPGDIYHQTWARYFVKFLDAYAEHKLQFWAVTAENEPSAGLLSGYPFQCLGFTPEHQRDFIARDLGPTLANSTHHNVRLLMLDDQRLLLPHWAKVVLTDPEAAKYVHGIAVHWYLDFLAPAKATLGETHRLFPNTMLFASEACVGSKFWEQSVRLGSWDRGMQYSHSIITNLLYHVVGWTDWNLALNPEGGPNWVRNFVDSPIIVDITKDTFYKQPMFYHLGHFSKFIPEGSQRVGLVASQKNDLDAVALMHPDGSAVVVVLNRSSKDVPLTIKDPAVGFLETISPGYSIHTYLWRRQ
Description: Non-lysosomal glucosylceramidase and lysosomal glucocerebrosidase were assayed in intact human cells using C6-NBD-glucosylceramide as substrate (see H. S. Overkleeft, et al. J. Biol. Chem. 273 (1998) 26522-26527, the entire teachings of which are incorporated herein by reference). Conduritol β epoxide (a specific inhibitor of lysosomal glucocerebrosidase) was used to differentiate lysosomal versus the non-lysosomal activity. Glucocerebrosidase activity was also measured by fluorescence-activated cell sorting (FACS). […] Cells were immediately chilled on ice and the fluorescence quantitated is above.

[2] = biological target: glycogen debranching enzyme (α-1,6-glucosidase) (Homo sapiens, UniProt P35573); assay: Glycogen debranching enzyme cell free assay; assay type: biochemical
Description: The specificity of Formula (I) Hemitartrate was evaluated in a series of in vitro cell-based and cell-free assays. The intestinal glycosidase enzymes were assayed in rat tissue homogenates (see U. Andersson, et al., Biochem. Pharm. 59 (2000) 821-829, the entire teachings of which are incorporated herein by reference), and the glycogen debranching enzyme was assayed in a cell free assay as described (see U. Andersson, et al., Biochem. Pharm. 67 (2004) 697-705, the entire teachings of which are incorporated herein by reference).

[3] = biological target: T2, glucosylceramide synthase (Homo sapiens, UniProt Q16739); assay: Glucosylceramide synthase inhibition in microsomes from human melanoma A375 cells; assay type: biochemical
T2 construct: microsomes were prepared from human melanoma A375 cells by sonication and centrifugation; endogenous in cells; host or cells: human melanoma A375 cells (microsomes)
T2 sequence (Q16739 1-394): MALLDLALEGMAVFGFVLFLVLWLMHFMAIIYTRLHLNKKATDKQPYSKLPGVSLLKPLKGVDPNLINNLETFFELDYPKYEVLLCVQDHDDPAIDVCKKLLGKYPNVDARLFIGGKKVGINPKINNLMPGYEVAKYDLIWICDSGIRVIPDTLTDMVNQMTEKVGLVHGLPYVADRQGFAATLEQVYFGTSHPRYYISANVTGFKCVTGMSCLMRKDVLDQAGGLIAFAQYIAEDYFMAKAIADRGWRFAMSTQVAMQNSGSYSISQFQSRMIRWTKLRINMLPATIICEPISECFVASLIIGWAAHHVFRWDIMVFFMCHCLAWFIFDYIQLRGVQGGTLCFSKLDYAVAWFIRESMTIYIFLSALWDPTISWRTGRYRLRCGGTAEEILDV
Description: An alternative assay for activity measured inhibition of glucosylceramide synthase in human cell derived microsomes. In this assay, microsomes were prepared from human melanoma A375 cells by sonication and centrifugation. […] Following the incubation, fluorescently labeled glucosylceramide and unreacted ceramide were separated and quantitated by reverse-phase HPLC and fluorescence detection.

GM3 in B16/F10 cells = assay: Flow cytometry of cell surface GM3 in intact cells; assay type: cell-based
Text: Since […] the first and rate-limiting step in the biosynthesis of glycosphingolipids, a flow cytometry assay that measured cell surface levels of GM 1 and GM3 was used to indirectly assess the activity of the inhibitor in intact cells.

Chain of glycogen debranching enzyme (α-1,6-glucosidase) (P35573 whole entry, species assumed): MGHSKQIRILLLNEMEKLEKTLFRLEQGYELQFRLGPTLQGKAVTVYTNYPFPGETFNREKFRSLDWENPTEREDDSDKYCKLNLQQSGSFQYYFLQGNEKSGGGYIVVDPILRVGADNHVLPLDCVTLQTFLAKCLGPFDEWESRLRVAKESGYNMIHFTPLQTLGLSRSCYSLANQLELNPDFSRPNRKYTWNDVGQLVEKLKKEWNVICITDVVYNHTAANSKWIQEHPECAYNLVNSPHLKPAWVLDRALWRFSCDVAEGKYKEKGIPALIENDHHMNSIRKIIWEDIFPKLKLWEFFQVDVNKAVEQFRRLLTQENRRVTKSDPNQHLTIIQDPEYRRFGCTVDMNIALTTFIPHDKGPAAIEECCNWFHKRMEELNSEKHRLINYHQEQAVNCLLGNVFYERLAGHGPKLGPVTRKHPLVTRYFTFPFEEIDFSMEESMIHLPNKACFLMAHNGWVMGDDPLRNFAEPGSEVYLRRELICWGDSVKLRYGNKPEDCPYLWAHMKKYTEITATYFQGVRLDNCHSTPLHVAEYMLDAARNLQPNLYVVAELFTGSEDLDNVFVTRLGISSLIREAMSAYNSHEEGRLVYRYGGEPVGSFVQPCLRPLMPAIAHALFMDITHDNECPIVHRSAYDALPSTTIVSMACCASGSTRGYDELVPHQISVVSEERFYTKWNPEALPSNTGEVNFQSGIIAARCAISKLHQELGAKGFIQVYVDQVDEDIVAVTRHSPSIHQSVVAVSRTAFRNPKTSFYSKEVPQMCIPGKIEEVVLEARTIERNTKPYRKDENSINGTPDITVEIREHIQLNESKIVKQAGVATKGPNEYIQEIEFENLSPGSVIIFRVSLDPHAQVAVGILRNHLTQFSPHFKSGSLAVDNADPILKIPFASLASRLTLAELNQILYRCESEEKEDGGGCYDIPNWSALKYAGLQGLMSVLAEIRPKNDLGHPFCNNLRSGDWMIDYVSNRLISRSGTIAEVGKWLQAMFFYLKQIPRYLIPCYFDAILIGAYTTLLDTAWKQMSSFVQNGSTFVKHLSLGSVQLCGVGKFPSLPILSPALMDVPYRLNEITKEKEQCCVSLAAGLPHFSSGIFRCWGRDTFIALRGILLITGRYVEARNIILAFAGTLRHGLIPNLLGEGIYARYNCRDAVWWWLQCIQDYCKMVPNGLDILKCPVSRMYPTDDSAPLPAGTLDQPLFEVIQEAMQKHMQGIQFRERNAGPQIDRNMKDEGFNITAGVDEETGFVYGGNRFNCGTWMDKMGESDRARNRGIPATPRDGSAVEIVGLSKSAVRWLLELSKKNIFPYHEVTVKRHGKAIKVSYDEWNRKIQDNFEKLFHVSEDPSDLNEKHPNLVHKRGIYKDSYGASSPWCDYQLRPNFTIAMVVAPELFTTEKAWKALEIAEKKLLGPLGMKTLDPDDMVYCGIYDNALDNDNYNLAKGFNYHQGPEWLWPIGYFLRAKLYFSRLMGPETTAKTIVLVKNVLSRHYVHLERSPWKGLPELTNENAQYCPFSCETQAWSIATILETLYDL

Structure (SMILES): CCCCCCCC(=O)N[C@H](CN1CCCC1)[C@H](O)c1ccc2c(c1)OCCO2 [Formula (I) Hemitartrate]
- onset of heat-insensitivity (Fabry-Rag mice): delays onset
- urine GL-3 levels (Fabry-Rag mice): reduces
- blood GL-3 levels (Fabry-Rag mice; from 3 months of age): does not
- inhibition of glucocerebrosidase activity ([1]; at the effective dose): no measurable inhibition
- pIC50 ([1]; read-out: Enzyme specificities, IC50: Lysosomal glucocerebrosidase (GBA1)): < 2.60
- inhibition of lysosomal glucocerebrosidase ([1]; up to the highest concentration of 2500 μM): no inhibition
- inhibition of cytosolic debranching enzyme (α-1,6-glucosidase) ([2]; concentrations up to 2500 μM): No detectable inhibition
- pIC50 ([2]; read-out: Enzyme specificities, IC50: Glycogen debranching enzyme): < 2.60
- differential in concentration required to inhibit glucosylceramide synthase compared to any of the other enzymes tested [3]: approximately 40,000
- pIC50 (GM3 in B16/F10 cells; Mus musculus, 72 h incubation, printed range 12-48 nM, read-out: mean IC50 for inhibiting the cell surface presentation of GM3): 7.54
- cellular toxicity (GM3 in B16/F10 cells; up to the highest dose (0.6-1000 nM), 72 h): No overt cellular toxicity
